According to patent publication US12252524B2, “GIP/GLP1 co-agonist compounds” (Eli Lilly and Company, priority 2018, dated 2025):
Numbered stars: 1 amine (or outer) side, 2 acyl side, 3 side chain; on linkers, the order of the positions; unused ones are H or OH. Square brackets hold non-standard residues; d marks the D form. Side chains are listed from the residue outwards. Peptide text beside a SMILES is read from it. * marks the point of attachment. C20 diacid = O=C(O)CCCCCCCCCCCCCCCCCCC(=O)*; C18 diacid = O=C(O)CCCCCCCCCCCCCCCCC(=O)*; αMePhe(2-F) = C[C@](N)(Cc1ccccc1F)C(=O)O; γGlu = O=C(O)[C@H](CCC(=O)[*:2])N[*:1]; αMeF = C[C@](N)(Cc1ccccc1)C(=O)O; αMeL = CC(C)C[C@](C)(N)C(=O)O; αMeP = C[C@@]1(C(=O)O)CCCN1; AEEA = NCCOCCOCC(=O)O; Aib = CC(C)(N)C(=O)O

Columns and labels:
[1] = target: human GLP-1 receptor (GLP-1R) (Homo sapiens, UniProt P43220); test: cAMP pharmacological functional assay in presence of casein, hGLP-1R; format: cell-based; conditions: HEK293 cells expressing hGLP-1R, 0.1% Casein, geometric mean; read-out: hGLP1R cAMP Rel EC50 nM (SEM, n)
[2] = target: T1, gastric inhibitory peptide receptor (GIPR) (Homo sapiens, UniProt P48546); test: cAMP pharmacological functional assay in presence of casein, hGIPR; format: cell-based; conditions: HEK293 cells expressing hGIPR, 0.1% Casein, geometric mean; read-out: hGIPR cAMP Rel EC50 nM (SEM, n)
T1 sequence (P48546 22-466): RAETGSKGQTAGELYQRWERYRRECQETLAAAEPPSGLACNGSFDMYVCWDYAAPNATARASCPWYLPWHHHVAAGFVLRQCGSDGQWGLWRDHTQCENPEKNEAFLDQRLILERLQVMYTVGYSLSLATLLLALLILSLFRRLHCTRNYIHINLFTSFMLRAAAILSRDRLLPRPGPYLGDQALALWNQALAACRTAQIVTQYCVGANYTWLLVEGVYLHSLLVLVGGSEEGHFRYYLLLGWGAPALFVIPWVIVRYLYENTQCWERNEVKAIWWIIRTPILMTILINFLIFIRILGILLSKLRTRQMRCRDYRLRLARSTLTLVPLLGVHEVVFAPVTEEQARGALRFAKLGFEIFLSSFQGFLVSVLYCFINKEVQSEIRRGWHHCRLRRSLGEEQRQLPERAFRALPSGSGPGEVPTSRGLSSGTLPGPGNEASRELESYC

Chain of human GLP-1 receptor (GLP-1R) (P43220 24-463): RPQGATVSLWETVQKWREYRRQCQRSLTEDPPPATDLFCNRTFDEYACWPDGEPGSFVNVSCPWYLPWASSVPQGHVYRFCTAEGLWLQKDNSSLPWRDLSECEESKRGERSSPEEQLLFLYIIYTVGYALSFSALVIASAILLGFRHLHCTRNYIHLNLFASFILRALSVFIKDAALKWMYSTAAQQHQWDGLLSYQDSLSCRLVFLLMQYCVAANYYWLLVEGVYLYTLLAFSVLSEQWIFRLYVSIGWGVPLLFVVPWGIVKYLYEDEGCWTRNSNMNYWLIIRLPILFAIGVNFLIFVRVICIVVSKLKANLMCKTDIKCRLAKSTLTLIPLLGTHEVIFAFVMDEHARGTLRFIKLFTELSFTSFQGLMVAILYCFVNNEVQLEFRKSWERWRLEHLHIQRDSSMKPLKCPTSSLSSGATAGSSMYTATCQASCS

CC[C@H](C)[C@H](NC(=O)[C@H](CC(C)C)NC(=O)[C@H](Cc1ccc(O)cc1)NC(=O)[C@H](CCC(=O)O)NC(=O)[C@@H](NC(=O)[C@H](Cc1ccccc1)NC(=O)[C@H](C)NC(=O)[C@H](CCC(N)=O)NC(=O)[C@H](CCC(N)=O)NC(=O)[C@H](C)NC(=O)[C@H](CCCCNC(=O)COCCOCCNC(=O)COCCOCCNC(=O)CC[C@H](NC(=O)CCCCCCCCCCCCCCCCC(=O)O)C(=O)O)NC(=O)[C@H](CCC(=O)O)NC(=O)[C@H](CC(=O)O)NC(=O)[C@H](CC(C)C)NC(=O)[C@H](CC(C)C)NC(=O)[C@@H](NC(=O)[C@H](CO)NC(=O)[C@H](Cc1ccc(O)cc1)NC(=O)[C@H](CC(=O)O)NC(=O)[C@H](CO)NC(=O)[C@@H](NC(=O)[C@H](Cc1ccccc1)NC(=O)[C@@H](NC(=O)CNC(=O)[C@H](CCC(=O)O)NC(=O)[C@]1(C)CCCN1C(=O)[C@H](N)Cc1ccc(O)cc1)[C@@H](C)O)[C@@H](C)O)[C@@H](C)CC)[C@@H](C)CC)C(=O)N[C@@H](CCC(=O)O)C(=O)NCC(=O)NCC(=O)N1CCC[C@H]1C(=O)N[C@@H](CO)C(=O)N[C@@H](CO)C(=O)NCC(N)=O [Example 198] (H-[dY][αMeP]EGTFTSDYSILLDEK([AEEA-AEEA-γGlu-C18 diacid])AQQAFIEYLIEGGPSSG-NH2)
EC50 [1]: 0.139 nM | EC50 [2]: > 30 nM

CC[C@H](C)[C@H](NC(=O)[C@H](CC(C)C)NC(=O)[C@H](Cc1ccc(O)cc1)NC(=O)[C@H](CCC(=O)O)NC(=O)[C@@H](NC(=O)[C@H](Cc1ccccc1)NC(=O)[C@H](CCC(=O)O)NC(=O)C(C)(C)NC(=O)[C@H](CCC(N)=O)NC(=O)[C@H](C)NC(=O)[C@H](CCCCNC(=O)COCCOCCNC(=O)COCCOCCNC(=O)CC[C@H](NC(=O)CCCCCCCCCCCCCCCCCCC(=O)O)C(=O)O)NC(=O)[C@H](CCC(=O)O)NC(=O)[C@H](CC(=O)O)NC(=O)[C@H](CC(C)C)NC(=O)[C@](C)(CC(C)C)NC(=O)[C@@H](NC(=O)[C@H](CO)NC(=O)[C@](C)(Cc1ccccc1)NC(=O)[C@H](CC(=O)O)NC(=O)[C@H](CO)NC(=O)[C@@H](NC(=O)[C@](C)(Cc1ccccc1F)NC(=O)[C@@H](NC(=O)CNC(=O)[C@H](CCC(=O)O)NC(=O)C(C)(C)NC(=O)[C@@H](N)Cc1ccc(O)cc1)[C@@H](C)O)[C@@H](C)O)[C@@H](C)CC)[C@@H](C)CC)C(=O)N[C@@H](CCC(=O)O)C(=O)NCC(=O)NCC(=O)N1CCC[C@H]1C(=O)N[C@@H](CO)C(=O)N[C@@H](CO)C(=O)NCC(=O)N[C@@H](C)C(=O)N1CCC[C@H]1C(=O)N1CCC[C@H]1C(=O)N1CCC[C@H]1C(=O)N[C@@H](CO)C(N)=O [Example 159] (H-Y[Aib]EGT[αMePhe(2-F)]TSD[αMeF]SI[αMeL]LDEK([AEEA-AEEA-γGlu-C20 diacid])AQ[Aib]EFIEYLIEGGPSSGAPPPS-NH2)
EC50 [1]: 0.33 nM | EC50 [2]: 4.6 nM

CC[C@H](C)[C@H](NC(=O)[C@H](CCCCN)NC(=O)[C@H](CC(=O)O)NC(=O)[C@H](CC(C)C)NC(=O)[C@H](CC(C)C)NC(=O)[C@@H](NC(=O)[C@H](CO)NC(=O)[C@H](Cc1ccc(O)cc1)NC(=O)[C@H](CC(=O)O)NC(=O)[C@H](CO)NC(=O)[C@@H](NC(=O)[C@H](Cc1ccccc1)NC(=O)[C@@H](NC(=O)CNC(=O)[C@H](CCC(=O)O)NC(=O)C(C)(C)NC(=O)[C@@H](N)Cc1ccc(O)cc1)[C@@H](C)O)[C@@H](C)O)[C@@H](C)CC)C(=O)N[C@@H](C)C(=O)N[C@@H](CCC(N)=O)C(=O)NC(C)(C)C(=O)N[C@@H](C)C(=O)N[C@@H](Cc1ccccc1)C(=O)N[C@H](C(=O)N[C@@H](CCC(=O)O)C(=O)N[C@@H](Cc1ccc(O)cc1)C(=O)N[C@@H](CC(C)C)C(=O)N[C@H](C(=O)N[C@@H](CCCCNC(=O)COCCOCCNC(=O)COCCOCCNC(=O)CC[C@H](NC(=O)CCCCCCCCCCCCCCCCCCC(=O)O)C(=O)O)C(=O)NCC(=O)NCC(N)=O)[C@@H](C)CC)[C@@H](C)CC [Example 73] (H-Y[Aib]EGTFTSDYSILLDKIAQ[Aib]AFIEYLIK([AEEA-AEEA-γGlu-C20 diacid])GG-NH2)
EC50 [1]: 2.55 nM | EC50 [2]: 0.979 nM
